The values that follow come from patent publication US11518763B2 (SCOHIA PHARMA, INC., priority 2018, dated 2022).

Read-outs that look alike come from different tables or passages of the source.

One assay has as its system Nqo1 mRNA. Nature of the assay: Expression of NRF2-downstream gene Nqo1 mRNA in rat kidney and liver after oral administration. In kind it is in vivo. To be noted: 17 h, male SD rats, 3 mg/kg oral, about 17 hours after administration, read-out: Nqo1 mRNA expression (fold change vs vehicle). On the procedure:
Test Example 2: Activity of Compound on Expression of NRF2-Downstream Gene in Rat Kidney and Liver
For the NRF2-downstream gene, Nqol mRNA was examined in regard to the expression level in kidney. Compounds were prepared into 0.5% methylcellulose (MC, METOLOSE, Shin-Etsu Chemical Co., Ltd.) suspensions, and were orally administered to male SD rats (CLEA Japan, Inc.) in a dose of 5 mL/kg. About 17 hours after the administration, the rats were euthanized under anesthesia, and their kidneys and livers were collected. By using an extraction kit, QIAsymphony RNA kit (QIAGEN, catalog number 931636) or RNeasy 96 Kit (QIAGEN, catalog number 74182), total RNA was extracted. From the total RNA thus obtained, cDNA was produced by using a cDNA synthesis kit, Superscript IV VIVO Master Mix (Thermo Fisher Scientific, catalog number 11754-250). By using the cDNA thus obtained with Taqman Fast Advanced Master Mix (Thermo Fisher Scientific, catalog number 4444557) or Platinum Quantitative PCR SuperMix (Thermo Fisher Scientific, catalog number 11743-500), and primers and a probe, the sequences of SEQ ID NO:1. SEQ ID NO:2, and SEQ ID NO: 3, which are shown in Table 4, real-time quantitative PCR was conducted with 7900HT Fast Real-Time PCR Systems or ViiA7 Fast Real-Time PCR Systems (Applied Biosystems). The expression level of Nqol mRNA in each organ of the rat to which the vehicle, 0.5% MC solution, was administered is defined as 1, and the variation is shown in Table 5.

Assay [1] concerns the target T1, binding between NRF2 and KEAP1 (biotinylated human KEAP1 protein (Kelch domain), TAMRA-labeled NRF2 peptide) (Homo sapiens, UniProt Q14145).
T1 construct: biotinylated human KEAP1 protein (Kelch domain); biotin (biotinylated)
Nature of the assay: Measurement of activity of inhibiting NRF2 binding (NRF2-KEAP1 TR-FRET). To be noted: inhibition rate relative to control at 100 nM test compound, TR-FRET, 60 min at room temperature; for inhibition at 0.1 µM: read-out: NRF2 binding inhibitory activity (at 100 nM). On the procedure:
Test Example 1: Measurement of Activity of Inhibiting NRF2 Binding
The inhibitory activity of test compounds against the binding between NRF2 and KEAP1 was measured by Time Resolved Fluorescence Resonance Energy Transfer (TR-FRET) method. Into a 384 well plate, 2 μL of a compound, 2 μL of 2 nM solution of biotinylated human KEAP1 protein (Kelch domain), 2 μL of 14 nM solution of TAMRA-labeled NRF2 peptide (TAMRA-Abu(4)-VWYTDIRMRDWM-OH), and 2 μL of 2 nM solution of Tb-labeled streptavidin, all solutions diluted with assay buffer (25 mM HEPES, pH7.5, 150 mM NaCl, 0.01% Tween-20), were added. For some wells, the KEAP1 protein was not added to define control wells. The plate was incubated at room temperature for 60 minutes, and time-resolved fluorescence was measured with a plate reader Envision (manufactured by PerkinElmer). The inhibitory activity for each compound at a compound concentration of 100 nM were calculated as a relative activity value by setting the fluorescence intensity of control wells to which the KEAP1 protein was not added as 100% inhibition, and the fluorescence intensity of wells to which no compound was added as 0%.
The measurement results according to the method described above (inhibition rate of signal value relative to control at 100 nM of test compound) are shown in Table 3.

T1 sequence (Q14145 321-609 limits assumed): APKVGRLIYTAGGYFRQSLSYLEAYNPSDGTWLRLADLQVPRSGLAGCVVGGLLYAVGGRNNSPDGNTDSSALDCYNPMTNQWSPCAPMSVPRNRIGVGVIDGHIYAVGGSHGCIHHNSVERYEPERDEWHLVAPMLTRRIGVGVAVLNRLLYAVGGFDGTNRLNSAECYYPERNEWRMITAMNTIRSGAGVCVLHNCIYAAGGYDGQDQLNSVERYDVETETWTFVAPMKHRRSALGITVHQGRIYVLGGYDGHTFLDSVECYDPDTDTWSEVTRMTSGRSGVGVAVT

For the compound `Cc1c2ccc3c1nnn3CCCCOc1cc(Cl)c(c(Cl)c1)C(=O)N1CCc3ccc(cc3C1)C2C(C)(C)C(=O)O` (stereo not shown) [Example 65, 2-[18,30-dichloro-32-methyl-20-oxo-15-oxa-8,9,10,21-tetrazahexacyclo[19.5.3.2^16,19.1^3,7.0^6,10.0^24,28]dotriaconta-1(27),3(32),4,6,8,16(31),17,19(30),24(28),25-decaen-2-yl]-2-methylpropanoic acid], the fold induction at 3 mg/kg in the assay on Nqo1 mRNA (Kidney) is 3.6. Also, the inhibition at 0.1 µM in assay [1] turned out to be 100%. For `Cc1c2ccc3c1nnn3CCCCCc1ccc(cc1)C(=O)N1CCc3ccc(cc3C1)C2CC(=O)O` (stereo not shown) [Example 11, [32-Methyl-20-oxo-8,9,10,21-tetraazahexacyclo[19.5.3.2^16,19.1^3,7.0^6,10.0^24,28]dotriaconta-1(26),3(32),4,6,8,16,18,24,27,30-decaen-2-yl]acetic acid], the fold induction at 3 mg/kg in the assay on Nqo1 mRNA (Kidney) is 8. The inhibition at 0.1 µM in assay [1] is 100%. As to `Cc1c2ccc3c1nnn3CCCCCc1ccc(c3c1OC(C)(C)C3)C(=O)N1CCc3ccc(cc3C1)C2CC(=O)O` (racemic) [Example 5, [6,6,33-Trimethyl-2-oxo-7-oxa-1,15,16,17-tetraazaheptacyclo[22.5.3.2^3,9.1^18,22.0^4,8.0^15,19.0^27,31]pentatriaconta-3,8,16,18(33),19,21,24,26,31,34-decaen-23-yl]acetic acid], in the assay on Nqo1 mRNA (Kidney), the fold induction at 3 mg/kg stood at 3.3. Further, in assay [1], the inhibition at 0.1 µM came to 100%.

With `Cc1c2ccc3c1nnn3CCCCCc1ccc(c3c1OCC3)C(=O)N1CCc3ccc(cc3C1)C2CC(=O)O` (racemic) [Example 4, [33-Methyl-2-oxo-7-oxa-1,15,16,17-tetraazaheptacyclo[22.5.3.2^3,9.1^18,22.0^4,8.0^15,19.0^27,31]pentatriaconta-3,8,16,18(33),19,21,24,26,31,34-decaen-23-yl]acetic acid], the fold induction at 3 mg/kg with Nqo1 mRNA (Kidney) stood at 6.8. Further, in assay [1], the inhibition at 0.1 µM is 100%. For the compound `Cc1c2ccc3c1nnn3CCCOCc1ccc(cc1)C(=O)N1CCc3ccc(cc3C1)C2CC(=O)O` (stereo not shown) [Example 25, [32-Methyl-20-oxo-14-oxa-8,9,10,21-tetraazahexacyclo[19.5.3.2^16,19.1^3,7.0^6,10.0^24,28]dotriaconta-1(26),3(32),4,6,8,16,18,24,27,30-decaen-2-yl]acetic acid], the fold induction at 3 mg/kg in the assay on Nqo1 mRNA (Kidney) was found to be 6.5; with Nqo1 mRNA (Liver), 22.2. In assay [1], the inhibition at 0.1 µM was 100%. With `Cc1c2ccc3c1nnn3CCCCCc1ccc(c(Cl)c1)C(=O)N1CCc3ccc(cc3C1)C2CC(=O)O` (racemic) [Example 9, [18-Chloro-32-methyl-20-oxo-8,9,10,21-tetraazahexacyclo[19.5.3.2^16,19.1^3,7.0^6,10.0^24,28]dotriaconta-1(26),3(32),4,6,8,16,18,24,27,30-decaen-2-yl]acetic acid], in the assay with Nqo1 mRNA (Kidney), the fold induction at 3 mg/kg came to 5.5. Moreover, the inhibition at 0.1 µM in assay [1] came to 100%. As for `Cc1c2ccc3c1nnn3CCCOCc1cc(Cl)c(c(Cl)c1)C(=O)N1CCc3ccc(cc3C1)C2C(C)(C)C(=O)O` (stereo not shown) [Example 60, 2-[18,30-dichloro-32-methyl-20-oxo-14-oxa-8,9,10,21-tetrazahexacyclo[19.5.3.2^16-19.1^3,7.0^6,10.0^24,28]dotriaconta-1(27),3(32),4,6,8,16,18,24(28),25,30-decaen-2-yl]-2-methylpropanoic acid], the fold induction at 3 mg/kg in the assay on Nqo1 mRNA (Kidney) turned out to be 2.9. For the same compound, the inhibition at 0.1 µM in assay [1] amounted to 100%. With `Cc1cc2cc(C)c1C(=O)N1CCc3ccc(cc3C1)C(CC(=O)O)c1ccc3c(nnn3CCCOC2)c1C` (stereo not shown) [Example 68, [18,30,32-trimethyl-20-oxo-14-oxa-8,9,10,21-tetrazahexacyclo[19.5.3.2^16,19.1^3,7.0^6,10.0^24,28]dotriaconta-1(27),3(32),4,6,8,16,18,24(28),25,30-decaen-2-yl]acetic acid], the “NRF2 binding inhibitory activity (at 100 nM)” value in assay [1] (0.1 µM) is 93%. On to `Cc1c2ccc3c1nnn3CCCCCc1ccc(cc1)C(=O)N1CCc3ccc(cc3C1)C2CC(=O)Nc1cccnc1` (stereo not shown) [Example 39], for which the inhibition at 0.1 µM in assay [1] turned out to be 97%.

Consider `Cc1c2ccc3c1nnn3CCCCOc1cc(Cl)c(c(Cl)c1)C(=O)N1CCc3ccc(cc3C1)C2C(C)(C)C(=O)O` (stereo not shown) [Example 66, 2-[18,30-dichloro-32-methyl-20-oxo-15-oxa-8,9,10,21-tetrazahexacyclo[19.5.3.2^16,19.1^3,7.0^6,10.0^24,28]dotriaconta-1(27),3(32),4,6,8,16(31),17,19(30),24(28),25-decaen-2-yl]-2-methylpropanoic acid], for which the “NRF2 binding inhibitory activity (at 100 nM)” value in assay [1] (0.1 µM) was 94%. Take `Cc1c2ccc3c1nnn3CC/C=C\CCc1ccc(cc1)C(=O)N1CCc3ccc(cc3C1)C2CC(=O)O` (racemic) [Example 14, [(13Z)-33-Methyl-21-oxo-8,9,10,22-tetraazahexacyclo[20.5.3.2^17,20.1^3,7.0^6,10.0^25,29]tritriaconta-1(27),3(33),4,6,8,13,17,19,25,28,31-undecaen-2-yl]acetic acid]: the inhibition at 0.1 µM in assay [1] amounted to 79%. Regarding `Cc1c2ccc3c1nnn3CCCCCc1ccc(cc1)C(=O)N1CCc3ccc(cc3C1)C2CC(=O)O` (stereo not shown) [Example 12, [32-Methyl-20-oxo-8,9,10,21-tetraazahexacyclo[19.5.3.2^16,19.0^3,7.0^6,10.0^24,28]dotriaconta-1(26),3(32),4,6,8,16,18,24,27,30-decaen-2-yl]acetic acid], the “NRF2 binding inhibitory activity (at 100 nM)” value in assay [1] was 100%. On to `Cc1c2ccc3c1nnn3CCCCOc1cc(F)c(c(F)c1)C(=O)N1CCc3ccc(cc3C1)C2CC(=O)O` (racemic) [Example 32, [18,30-Difluoro-32-methyl-20-oxo-15-oxa-8,9,10,21-tetraazahexacyclo[19.5.3.2^16,19.1^3,7.0^6,10.0^24,28]dotriaconta-1(26),3(32),4,6,8,16,18,24,27,30-decaen-2-yl]acetic acid], for which, in assay [1], the inhibition at 0.1 µM was found to be 100%. Regarding `O=C(O)CC1c2ccc3c(c2)CN(CC3)C(=O)c2ccc(cc2)CCCCCn2nnc3cc1ccc32` (racemic) [Example 2, [20-oxo-8,9,10,21-tetraazahexacyclo[19.5.3.2^16,19.1^3,7.0^6,10.0^24,28]dotriaconta-1(26),3(32),4,6,8,16,18,24,27,30-decaen-2-yl]acetic acid], the inhibition at 0.1 µM in assay [1] was 100%. For `Cc1oc(=O)oc1COC(=O)CC1c2ccc3c(c2)CN(CC3)C(=O)c2ccc(cc2)CCCCCn2nnc3c(C)c1ccc32` (stereo not shown) [Example 35, (5-Methyl-2-oxo-2H-1,3-dioxol-4-yl)methyl [32-methyl-20-oxo-8,9,10,21-tetraazahexacyclo[19.5.3.2^16,19.1^3,7.0^6,10.0^24,28]dotriaconta-1(26),3(32),4,6,8,16,18,24,27,30-decaen-2-yl]acetate], in assay [1], the inhibition at 0.1 µM worked out at 99%. `Cc1cc2cc(C)c1C(=O)N1CCc3ccc(cc3C1)C(CC(=O)O)c1ccc3c(nnn3CCCOC2)c1C` (stereo not shown) [Example 67, [18,30,32-trimethyl-20-oxo-14-oxa-8,9,10,21-tetrazahexacyclo[19.5.3.2^16,19.1^3,7.0^6,10.0^24,28]dotriaconta-1(27),3(32),4,6,8,16,18,24(28),25,30-decaen-2-yl]acetic acid]: in assay [1], the inhibition at 0.1 µM came out at 99%. As to `Cc1c2ccc3c1nnn3CCCCCCc1ccc(cc1)C(=O)N1CCc3ccc(cc3C1)C2CC(=O)O` (racemic) [Example 15, [33-Methyl-21-oxo-8,9,10,22-tetraazahexacyclo[20.5.3.2^17,20.1^3,7.0^6,10.0^25,29]tritriaconta-1(27),3(33),4,6,8,17,19,25,28,31-decaen-2-yl]acetic acid], the inhibition at 0.1 µM in assay [1] was found to be 100%.
